This is an account of results in patent publication US20110244059A1, “INHIBITING OBESITY PROGRESSION BY INHIBITING ADIPOCYTE DIFFERENTIATION WITH A PRE-ADIPOCYTE AUTOPHAGY INHIBITOR” (The University of Medicine and Dentistry of New Jersey, priority 2008, published 2011).

The structures appear in SMILES notation. Entries after “also recorded” stand apart in the source; their conditions may differ.

For one data set, the system named is wild type primary MEFs. The experiment in a line: Adipocyte differentiation (adipogenesis) of primary MEFs under standard induction protocol. It is filed as cell-based, mouse.

Method for wild type primary MEFs: The MEFs were prepared from 13.5 days embryos of atg5+/+ and atg5−/− mice according to standard protocol. Briefly, whole mouse embryos were removed from the uterus, dissected and the head, tail, limbs and all internal organs were removed. The carcasses were minced, washed in PBS, and then incubated in 2 ml 0.05% Trypsin-EDTA (Invitrogen, CA, US) at 37° C. for 20 min with shaking. The digested cells were plated on a 100-mm dish in Dulbecco's modified Eagle's medium (DMEM, Invitrogen) with 10% fetal bovine serum (FCS, Invitrogen) and incubated at 37° C. in humidified air containing 5% CO2. Cells were grown for 24 hr until the culture was 90% confluent, and then split and passed on. The primary MEF cells of passage three to five were treated under standard protocol to induce adipocyte differentiation (Banks, A. S., et al. Deletion of SOCS7 leads to enhanced insulin action and enlarged islets of Langerhans. J. Clin. Invest. September 2005 115, 2462-2471). Briefly, cells were seeded in 6-well plates with cover slips and propagated to confluence. 48 hours later, which was designated as Day 0, differentiation was initiated using Dulbecco's Modified Eagle's Medium (DMEM) containing 10% fetal bovine serum, 5 μg/ml insulin, 1 μM dexamethasone, 0.5 mM 3-Isobutyl-1-methylxanthine (IBMX), and 10 μM troglitazone (Sigma, MO, US). After 2-day initiation, the media was replaced with a maintenance medium (DMEM containing 10% fetal bovine serum, 5 μg/ml insulin, and 10 μM troglitazone). Fresh maintenance medium was replaced every 2 days thereafter. Cells collected at various time points, up to maximal 14 days.
The medium was replaced with maintenance medium including 10 μM CQ two days after initiation. Fresh maintenance medium with 10 μM CQ was replaced every two days thereafter.
Live cells were observed under the Olympus IX70 microscope with relief contrast objectives (10× or 40×). […] For time-lapse microscopy, cells were plated on tissue culture plates and monitored using Olympus IX70 microscope with the 37° C. and 5% CO2 environmental chamber using 10× objectives. Images were collected with CCD video camera (Model MicroMax; Princeton Instruments, Trenton, N.J., US) at 5 min intervals and saved as images stacks using IPLab software (BD Biosciences Bioimaging, Rockville, Md., US). Images were processed using Image J software (NIH, Bethesda, Md., US).
Bodipy: The differentiating cells were stained with BODIPY 493/503 (Invitrogen, CA, US) as described (DiDanato, D. et al. Fixation methods for the study of lipid droplets by immunofluorescence microscopy. J Histochem. Cytochem June 2003 51, 773-780; Gocze, P. M. et al. Factors underlying the variability of lipid droplet fluorescence in MA-10 Lydig tumor cells. Cytometry 17, 151-158.) Briefly, the cell culture slides were washed once with phosphate-buffered saline (PBS), fixed with 3% paraformaldehyde in PBS for 30 minutes at room temperature, and washed 4 times with PBS, and then stained with 10 μg/ml Bodipy 493/503 at room temperature for 15 minutes in darkness, mounted with Vectashield Mounting Medium (Vector Laboratories, CA, US). Oil Red-O: The cells on cover slides were stained with Oil Red-O (Sigma, MO, US) according to Kim et al with some modification (Kim, Y. K., et al. Reversine stimulates adipocyte differentiation and downregulates Akt and p70(s6k) singaling pathways in 3T3-L1 cells. Biochem Biophys Res Commun 358, 553-558). Oil Red-O was dissolved in isopropanol to 3.5 mg/ml. Before using, dilute 6 parts Oil Red-O stock with 4 parts H2O, sit at room temp for 20 min, and filter through 0.2 μm filter. The slides were washed once with PBS, fixed with 4% paraformaldehyde (Fisher Scientific, PA, US) buffered with PBS for 1 hr, and then washed twice with 60% isopropanol for 5 minutes each. Cells were then air dried and stained with Oil Red-O working solution for 30 minutes at 25° C.

For the compound `CCN(CCO)CCCC(C)Nc1ccnc2cc(Cl)ccc12` (centres unmarked) [hydroxychloroquine], the “viability of the undifferentiated cells” value in the data set on wild type MEFs is on record as “not apparently affected”. The “adipocyte differentiation of primary MEFs” value with wild type primary MEFs (1 micro molar hydroxychloroquine, lesser degree than 10 micro molar) was “had inhibitory effect on blocking adipocyte differentiation”; with wild type primary MEFs (5 micro molar hydroxychloroquine, lesser degree than 10 micro molar) it was “had inhibitory effect on blocking adipocyte differentiation”; in the data set on wild type primary MEFs (10 micro molar hydroxychloroquine during differentiation induction), “stalled at the initial stage of adipocyte differentiation”. Further, the “fate of cells that did differentiate” value in the data set with wild type primary MEFs (hydroxychloroquine treatment, 10 micro molar) is “eventually died”.
Take `CCN(CC)CCCC(C)Nc1ccnc2cc(Cl)ccc12` (centres unmarked) [chloroquine]: in the data set with wild type MEFs (10 μM chloroquine for 4 days, FIG. 9D), the “cytotoxic effect on MEFs (Tunel assay)” value is on record as “little cytotoxic effect; also recorded: non-toxic”. Also, the “lipid accumulation, Bodipy 493/503 staining” value in the data set on wild type primary MEFs (10 μM chloroquine, 14 days after differentiation induction, FIG. 9B) is “same inhibitory effect”. Besides, in the data set on wild type primary MEFs (10 μM chloroquine, 14 days after differentiation induction, FIG. 9C), the “lipid accumulation, Oil Red-O staining (spectrometry)” value is recorded as “same inhibitory effect”.
